Experimental data published in US20050014144A1, “Methods” (priority 2001, published 2005).

Legend:
Plasmopara viticola = assay: in planta dose response bioassay with azoxystrobin on vine seedlings (EC50, EC95); assay type: in vivo; conditions: for EC95: vine seedlings, azoxystrobin rates in ppm (Table 31)
Method: The in planta dose response bioassay was performed on 10 to 14 days old vine seedlings grown in 1.5″ pots. Six rates of azoxystrobin were chosen from preparatory tests, as the most suitable for showing any shifts in sensitivity to azoxystrobin in the dose response bioassay (Table 31).
The azoxystrobin preparation used for all the tests was P53, a technical grade powder with a purity of >97% azoxystrobin. This was kept consistent across all the tests to eliminate any variation caused by differences in chemical purity or physical state. Five seedlings were used per azoxystrobin rate per sample, and 10 seedlings were used for the no azoxystrobin control (sprayed with de-ionised water only).
The chemical was sprayed, with a Devilbiss spray gun at 10 psi, to maximum retention onto the adaxial surface of the 2nd true leaf (test leaf) of each seedling, with care being taken to continuously swirl the solution in the spray gun to prevent local fluctuations in azoxystrobin concentration: The seedlings were then carefully placed in a growth room (Day: 24° C., 60% RH, 4-5000 lux; Night: 17° C., 95% RH; Day length: 16 hours) for 24 hours.
After this time each test leaf was inoculated with the samples I112 and I116b. Both samples had passed through 1 cycle of subculture on 3″ vines since being removed from low temperature storage (FIG. 14). The inoculum from each sample, obtained from the 3″ vines, was diluted to 5,000 sporangia per ml using a dry haemocytometer (Improved Neubayer, depth 0.1 mm, 1/400 mm^2, Hawksley Crystallite, BS 748).
The samples were inoculated, with a Devilbiss spray gun at 10 psi, to maximum retention onto the abaxial surface of the test leaf of each seedling, with the suspension being swirled frequently in the spray gun to keep sporangia from accumulating at the bottom. The test seedlings were incubated in an ambient room for twenty-four hours. The seedlings were then randomised and placed in a growth room (Day: 24° C., 60% RH, 4-5000 lux; Night: 17° C., 95% RH; Day length: 16 hours) for 6 days, before being returned to the ambient room for a further 24 hours to stimulate sporulation.
The seedlings were assessed directly after their removal from the ambient room for the second time. Disease assessment was based on the percentage area of the leaf covered by sporulating lesions and discolouration, and recorded in 5% increments. […] The data was then analysed using the statistical program AGSTAT.

Pythium aphanidermatum = assay: Azoxystrobin sensitivity of P. aphanidermatum isolates on treated perennial ryegrass turf (percent infected turf area); assay type: in vivo
Method: To enable an assessment of axoxystrobin (strobilurin) resistance of the above isolates, perennial ryegrass (Lolium perenne L.) was grown in 4×4 inch square plastic pots containing sandy soil. Agsorb absorbent clay (extra fine red) was used to anchor the seeds and provide a high level of moisture around the seed to aid germination. The pots were watered using a fog nozzle and covered with paper to reduce evaporation. A fog nozzle was used 3-5 times a day to water the turf pots. When seedlings emerged, the paper cover was removed from the pots to prevent etiolation and watering was reduced to twice daily using a fan nozzle. The pots were maintained for 12-16 days in a glass-house (17-32° C.; 14 h photoperiod) prior to treatment. During this time, the turf was cut twice with electric Black and Decker hand-held clippers.
Pythium aphanidermatum cultures of the isolates summarized in FIG. 1 were maintained on potato dextrose agar (PDA) amended with streptomycin sulfate at 0.05 g/L. Organically grown rye grains (50 g) were hydrated overnight with 40 ml deionized water placed in 250 ml plastic (polyvinyl-chloride) flasks. The flasks were autoclaved twice on successive days for 45 minutes each time. After the berries cooled, ten 1×1 cm agar plugs of P. aphanidermatum were added to each flask. Flasks containing infected rye-berries were incubated in a growth chamber (26° C.; 14 h photoperiod) for seven days to allow the fungi to colonize the rye grains. The fungal-colonized rye grains were then used to inoculate the turf; by placing four berries on the center surface of each pot.
Azoxystrobin treatments were applied in an automated spray cabinet using a flat fan nozzle (8004E) positioned 18 inches over the turf with a spray volume of 3 US gal/1000 sq.ft. To prevent carry over from treatment to treatment, applications were made starting with the lowest concentration and ending with the highest concentration. The spray nozzle was washed once with acetone and twice with deionized water (100 ml/rinse) between treatments. Turf was sprayed with Heritage® (azoxystrobin) at rates of 0.4, 0.133, 0.044, 0.015, 0.005 and 0 oz.Heritage/1000 sq.ft. Following application, the turf was allowed to dry and was transferred to a growth chamber (25-28° C.; 14 h photoperiod) overnight.
Turf was inoculated with fungal-colonized rye-berries one day after application as previously described. All treatments were then randomized and placed in a dew chamber (25-28° C.; 14 h photoperiod) for four days. The turf was moved to a growth room 24 h prior to disease assessment. The percent of Pythium-infected turf area in each pot was assessed five days after inoculation With the exception of isolate 99-150, all the isolates of P. aphanidermatum were sensitive to azoxystrobin (Table1). […] This is the first report of resistance to azoxystrobin of an isolate of the plant pathogenic fungus P. aphanidermatum.
The sensitivity of the resistant isolate 99-150 and sensitive isolate P32R was then confirmed by testing in two separate experiments using rates up to nine times higher than the recommended commercial rate of Heritage® (azoxystrobin): 3.6, 1.2, 0.4, 0.133, 0.044, 0.015, 0.005 and 0 oz/1000 sq.ft.

[1] = system: P. viticola cytochrome b gene F129 and L129 alleles; assay: ARMS/Scorpion F129L SNP detection assay (Ct of allele selective primers on plasmid DNA templates); set-up: species or system Plasmopara viticola
Method: In all ARMS/Scorpion F129L SNP detection assays AmpliTaq Gold enzyme (Applied Biosystems) is included in the reaction mixes at 1 unit/25 ul reaction. The reaction mix also contains 1× buffer (10 mM Tris-HCl (pH8.3), 50 mM KCl, 3.5 mM MgCl2, 0.01% gelatine) and 100 uM dNTP's (Amersham Pharmacia Biotech). Amplifications are performed in an ABI 7700 instrument for continuous fluorescence monitoring. The cycling conditions comprise a preliminary cycle of 95° C. for 10 minutes, followed by 50 cycles of 95° C. for 15 seconds and 60° C. for 45 seconds. Fluorescence is monitored during the annealing/extension stage throughout all cycles.
The ARMS primers are validated for use in such analyses by using plasmid DNA, at various concentrations as template. This is performed in order to check the specificity and sensitivity of the primer designs. Partial wild type cytochrome b gene sequence and the corresponding tract containing the F129L mutation amplified from two P. viticola samples has been cloned into the TA pCR2.1 vector (Invitrogen) as described previously in example 11. 150 ul of the bacterial culture, from the 10 transformants from each cloning event picked for Qiagen Biorobot plasmid DNA Preparations (Qiazen) (see example 11), was saved prior to carrying out these preparations and stored at 4° C. Following sequence analysis wild type and mutant plasmid DNA samples that contained no sequence differences from the consensus sequence were noted. The bacterial culture from which these wild type and mutant plasmid DNA sequences originated was picked for plasmid DNA maxipreps (Qiagen) following the manufacturers protocol. The resulting plasmid DNA was quantified and diluted to a concentration of 1 ug/ul (2×10^11 molecules/ul) using sterile double distilled H2O.
The wild type and mutant cyt b plasmid DNA constructs were diluted further to a concentration of 10 pg/ul (or 2×10^6 molecules/ul) in double distilled H2O and used as template to validate the specificity of the ARMS primers. […]

CO/C=C(/C(=O)OC)c1ccccc1Oc1cc(Oc2ccccc2C#N)ncn1 [azoxystrobin]
EC95 (Plasmopara viticola; P. viticola K2075 (sensitive baseline isolate)): 0.51 | EC95 (Plasmopara viticola; P. viticola isolate 00I112): 11.75 | EC95 (Plasmopara viticola; P. viticola isolate 00I116B): 2.84 | sensitivity to azoxystrobin in the in planta dose response bioassay (Plasmopara viticola; P. viticola sample I112, compared with the sensitive baseline isolate): reduced sensitivity | sensitivity to azoxystrobin in the in planta dose response bioassay (Plasmopara viticola; P. viticola sample I116B, compared with the sensitive baseline isolate): reduced sensitivity | sensitivity of isolate to azoxystrobin (percent of Pythium-infected turf area) (Pythium aphanidermatum; P. aphanidermatum isolate 99-150, Heritage 0.005-0.4 oz/1000 sq.ft on turf, assessed five days after inoculation): resistant | sensitivity of isolates to azoxystrobin (percent of Pythium-infected turf area) (Pythium aphanidermatum; all P. aphanidermatum isolates except 99-150, Heritage 0.005-0.4 oz/1000 sq.ft on turf, assessed five days after inoculation): sensitive | response of isolate to azoxystrobin (percentage of infected turf) (Pythium aphanidermatum; resistant isolate 99-150, rates up to nine times the recommended commercial rate of Heritage (3.6 oz/1000 sq.ft)): did not respond | ED80 values of the sensitive isolates (Pythium aphanidermatum; sensitive P. aphanidermatum isolates, compared with the established baseline distribution): within the range of ED80 values of the baseline distribution | percentage of infected turf (Pythium aphanidermatum; sensitive isolate P32R, highest rate of Heritage (3.6 oz/1000 sq.ft)): reduced dramatically

Pv129S (DNA GTCCCCAAGGCAAAACATAACCCAT; chemistry not given here)
Mut Ct ([1]; mutant (L129) plasmid template, 2×10^6 molecules/ul): 17.22 | NTC amplification ([1]; no template (water only) control): None | Wt Ct ([1]; wild type (F129) plasmid template, 2×10^6 molecules/ul): 17.0
